According to PubChem BioAssay (NCI):
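In this assay, cells in 96-well plates receive the compound at five concentrations for 48 hours. Endpoints are linearly interpolated between the surrounding concentrations. At the TGI there is no net growth.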

Columns and labels:
Test in all cases: NCI tumour cell line growth inhibition, 48 h
[1] = tested on: A549 NSCLC
[2] = tested on: KM12 colon
[3] = tested on: SN12C renal
[4] = tested on: IGROV1 ovarian
[5] = tested on: MOLT-4 leukemia
[6] = tested on: SK-OV-3 ovarian
[7] = tested on: U251 CNS
[8] = tested on: OVCAR-4 ovarian
[9] = tested on: NCI-H460 lung
[10] = tested on: SF-268 CNS
[11] = tested on: ACHN renal
[12] = tested on: SF-295 CNS
[13] = tested on: COLO 205 colon
[14] = tested on: UACC-257 melanoma
[15] = tested on: SR leukemia
[16] = tested on: HCT-116 colon
[17] = tested on: NCI-H23 lung
[18] = tested on: OVCAR-5 ovarian
[19] = tested on: UACC-62 melanoma
[20] = tested on: MDA-N
[21] = tested on: NCI/ADR-RES ovarian
[22] = tested on: HS 578T breast
[23] = tested on: RPMI-8226 leukemia
[24] = tested on: OVCAR-8 ovarian
[25] = tested on: SK-MEL-5 melanoma
[26] = tested on: SF-539 CNS
[27] = tested on: OVCAR-3 ovarian
[28] = tested on: MDA-MB-231 breast
[29] = tested on: SK-MEL-28 melanoma
[30] = tested on: NCI-H522 lung
[31] = tested on: SNB-19 CNS
[32] = tested on: A498 renal
[33] = tested on: K-562 leukemia
[34] = tested on: HT29 colon
[35] = tested on: MALME-3M melanoma
[36] = tested on: SK-MEL-2 melanoma
[37] = tested on: HCT-15 colon
[38] = tested on: PC-3 prostate
[39] = tested on: TK-10 renal
[40] = tested on: BT-549 breast
[41] = tested on: CAKI-1 renal
[42] = tested on: HOP-62 NSCLC
[43] = tested on: 786-0 renal
[44] = tested on: SW-620 colon
[45] = tested on: HOP-92 NSCLC
[46] = tested on: LOX IMVI melanoma
[47] = tested on: MCF7 breast
[48] = tested on: M14 melanoma
[49] = tested on: EKVX NSCLC
[50] = tested on: HL-60(TB) leukemia
[51] = tested on: NCI-H226 lung
[52] = tested on: CCRF-CEM leukemia
[53] = tested on: MDA-MB-435
[54] = tested on: HCC-2998 colon
[55] = tested on: UO-31 renal
[56] = tested on: SNB-75 CNS
[57] = tested on: RXF 393 renal
[58] = tested on: DU-145 prostate
[59] = tested on: T-47D breast

O=C(c1ccccc1)c1cc(-c2ccccc2)c(-c2ccccc2)[nH]c(=O)c1=O
TGI [1]: > 100 µM | TGI [2]: > 100 µM | TGI [3]: > 100 µM | TGI [4]: > 100 µM | TGI [5]: 57.2 µM | TGI [6]: > 100 µM | TGI [7]: > 100 µM | TGI [8]: > 100 µM | TGI [9]: > 100 µM | TGI [10]: > 100 µM | TGI [11]: > 100 µM | TGI [12]: > 100 µM | TGI [13]: 61.5 µM | TGI [14]: > 100 µM | TGI [15]: 57.1 µM | TGI [16]: > 100 µM | TGI [17]: 49.4 µM | TGI [18]: > 100 µM | TGI [19]: 82.2 µM | TGI [20]: > 100 µM | TGI [21]: > 100 µM | TGI [22]: > 100 µM | TGI [23]: 60 µM | TGI [24]: > 100 µM | TGI [25]: > 100 µM | TGI [26]: > 100 µM | TGI [27]: > 100 µM | TGI [28]: > 100 µM | TGI [29]: > 100 µM | TGI [30]: 74.4 µM | TGI [31]: > 100 µM | TGI [32]: > 100 µM | TGI [33]: > 100 µM | TGI [34]: > 100 µM | TGI [35]: > 100 µM | TGI [36]: 57.5 µM | TGI [37]: > 100 µM | TGI [38]: > 100 µM | TGI [39]: > 100 µM | TGI [40]: 53.1 µM | TGI [41]: > 100 µM | TGI [42]: > 100 µM | TGI [43]: > 100 µM | TGI [44]: > 100 µM | TGI [45]: > 100 µM | TGI [46]: > 100 µM | TGI [47]: > 100 µM | TGI [48]: > 100 µM | TGI [49]: > 100 µM | TGI [50]: 40.4 µM | TGI [51]: > 100 µM | TGI [52]: > 100 µM | TGI [53]: > 100 µM | TGI [54]: 60.6 µM | TGI [55]: > 100 µM

C=CCn1c(=O)c(-c2ccccc2)c(O)c2ccccc21
TGI [1]: > 100 µM | TGI [2]: > 100 µM | TGI [3]: > 100 µM | TGI [4]: > 100 µM | TGI [5]: > 100 µM | TGI [7]: > 100 µM | TGI [8]: > 100 µM | TGI [9]: > 100 µM | TGI [10]: > 100 µM | TGI [11]: > 100 µM | TGI [56]: > 100 µM | TGI [12]: > 100 µM | TGI [13]: > 100 µM | TGI [14]: > 100 µM | TGI [15]: > 100 µM | TGI [16]: > 100 µM | TGI [17]: > 100 µM | TGI [18]: > 100 µM | TGI [20]: > 100 µM | TGI [21]: > 100 µM | TGI [22]: > 100 µM | TGI [23]: > 100 µM | TGI [24]: > 100 µM | TGI [25]: > 100 µM | TGI [26]: > 100 µM | TGI [27]: > 100 µM | TGI [28]: > 100 µM | TGI [29]: > 100 µM | TGI [30]: > 100 µM | TGI [31]: > 100 µM | TGI [32]: > 100 µM | TGI [33]: > 100 µM | TGI [34]: > 100 µM | TGI [35]: > 100 µM | TGI [37]: > 100 µM | TGI [38]: > 100 µM | TGI [39]: > 100 µM | TGI [40]: > 100 µM | TGI [41]: > 100 µM | TGI [42]: > 100 µM | TGI [43]: > 100 µM | TGI [44]: > 100 µM | TGI [57]: > 100 µM | TGI [45]: > 100 µM | TGI [46]: > 100 µM | TGI [58]: > 100 µM | TGI [47]: > 100 µM | TGI [49]: > 100 µM | TGI [50]: > 100 µM | TGI [51]: > 100 µM | TGI [52]: > 100 µM | TGI [53]: > 100 µM | TGI [54]: > 100 µM | TGI [55]: > 100 µM

O=C1c2ccccc2C(=O)c2c1c1cc(O)ccc1n2Cc1ccc(Cl)cc1Cl
TGI [1]: 13.3 µM | TGI [2]: > 100 µM | TGI [3]: 16.3 µM | TGI [4]: 21.2 µM | TGI [5]: 43.4 µM | TGI [6]: 13.8 µM | TGI [7]: 12.2 µM | TGI [8]: 4.27 µM | TGI [9]: 11.8 µM | TGI [10]: 29.7 µM | TGI [12]: 20.1 µM | TGI [13]: 29.8 µM | TGI [14]: 69.9 µM | TGI [15]: > 100 µM | TGI [16]: 73.2 µM | TGI [17]: 19.9 µM | TGI [18]: 5.66 µM | TGI [19]: 21.8 µM | TGI [20]: 38.7 µM | TGI [21]: 11.7 µM | TGI [22]: > 100 µM | TGI [23]: 26.7 µM | TGI [24]: 19.1 µM | TGI [25]: 47.4 µM | TGI [26]: 14.7 µM | TGI [28]: 17.5 µM | TGI [29]: 36.1 µM | TGI [31]: 34.7 µM | TGI [32]: 38.1 µM | TGI [33]: > 100 µM | TGI [34]: 51 µM | TGI [35]: 63.9 µM | TGI [36]: 33.9 µM | TGI [37]: 23.3 µM | TGI [38]: 3.97 µM | TGI [39]: 27.4 µM | TGI [40]: 36.9 µM | TGI [41]: 14.4 µM | TGI [42]: 9.88 µM | TGI [43]: 8.09 µM | TGI [44]: > 100 µM | TGI [57]: 9.44 µM | TGI [46]: 11.4 µM | TGI [58]: > 100 µM | TGI [47]: 16.5 µM | TGI [48]: 46.6 µM | TGI [50]: > 100 µM | TGI [51]: 31.1 µM | TGI [52]: 18.9 µM | TGI [53]: 27.8 µM | TGI [55]: 37.9 µM

N#Cc1ccc(NC(=NCC(=O)O)Nc2ccc3ccccc3c2)cc1
TGI [1]: > 10 µM | TGI [2]: > 10 µM | TGI [3]: > 10 µM | TGI [4]: > 10 µM | TGI [5]: > 10 µM | TGI [6]: > 10 µM | TGI [10]: > 10 µM | TGI [56]: > 10 µM | TGI [12]: > 10 µM | TGI [59]: > 10 µM | TGI [13]: > 10 µM | TGI [14]: > 10 µM | TGI [15]: > 10 µM | TGI [17]: > 10 µM | TGI [19]: > 10 µM | TGI [20]: > 10 µM | TGI [23]: > 10 µM | TGI [24]: > 10 µM | TGI [25]: > 10 µM | TGI [28]: > 10 µM | TGI [29]: > 10 µM | TGI [33]: > 10 µM | TGI [34]: > 10 µM | TGI [35]: > 10 µM | TGI [37]: > 10 µM | TGI [38]: > 10 µM | TGI [39]: > 10 µM | TGI [41]: > 10 µM | TGI [42]: > 10 µM | TGI [43]: > 10 µM | TGI [44]: > 10 µM | TGI [57]: > 10 µM | TGI [58]: > 10 µM | TGI [47]: > 10 µM | TGI [48]: > 10 µM | TGI [49]: > 10 µM | TGI [50]: > 10 µM | TGI [52]: > 10 µM | TGI [54]: > 10 µM
